Assay results published in PubChem BioAssay (NCI).
Values joined by “and” are separate entries in the source; they are usually repeats but may differ in a detail not shown here. Equal entries are not always repeated.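 Protocol summary: plate cells (96-well), add compound at 5 concentrations, incubate 48 h, interpolate endpoints linearly. Abbreviation: GI50, concentration required for 50% inhibition of growth. TGI: concentration producing complete growth inhibition.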

System: MDA-MB-468 breast
Assay: DTP human tumour cell line panel, 48 h

| SMILES | GI50 | TGI |
| --- | --- | --- |
| CC(NNC(=S)N1CCCCCC1)c1ccc2ccccc2n1 (stereo not drawn) | 603 nM | 28.1 µM |
| CN(C)Cc1ccc(C(=O)Nc2ccc3ncnc(Nc4ccc(Oc5cccc(F)c5)c(Cl)c4)c3c2)cc1 | 1290 nM | 2.79 µM |
| O=C(Nc1ncc(Cc2ccccc2Cl)s1)c1ccc2c(c1)OCCO2 | 462 nM | > 30.6 µM |
| O=C(Oc1ccc(CCl)cc1)c1ccccc1 | 142 nM | 0.325 µM |
| COc1ccc(/C=C\c2cc(OC)c(OC)c(OC)c2)cc1OCC(=O)Nc1nc2ccc(C(F)(F)F)cc2s1 | 2160 nM | 6.25 µM |
| S=C(Nc1ccc(Cl)cc1)Nc1ccc(Cl)cc1 (tested in a mixture with another compound) | 1700 nM | 5.11 µM |
| CCOC(=O)Oc1c(OC)cc(C(=O)O[C@@H]2C[C@@H]3CN4CCc5c([nH]c6cc(OC)ccc56)[C@H]4C[C@@H]3[C@H](C(=O)OC)[C@H]2OC)cc1OC | 8130 nM | 23.3 µM |
| CCN(CC)CCCCCCCNc1c2ccc(Cl)cc2nc2ccc(OC)cc12 | 1340 nM | 2.86 µM |
| O=C(NC(=S)Nc1ccc(Cl)cc1)c1ccccc1 | 2560 nM | > 85.3 µM |
| COc1cc(/C=C/C(=O)c2ccc(Cl)cc2)ccc1OS(=O)(=O)c1ccc(C)cc1 | 8430 nM | 32.1 µM |
| COC(=O)/C(=C\c1c(C)[nH]c2ccccc12)S(=O)(=O)c1ccccc1 | 6250 nM | > 100 µM |
| CCC1=Cc2c(OC)cccc2OC12C=Cc1c(OC)cccc1O2 (stereo not drawn) | 951 nM | > 100 µM |
| O=C(Nc1ccc(Cl)cc1)c1cc2ccccc2cc1O | 1610 nM | 7.03 µM |
| Cc1ccc2c(=O)c3cccc(CC(=O)O)c3oc2c1C | > 100000 nM | > 100 µM |
| C#C[C@]1(O)CC[C@H]2[C@@H]3CC=C4c5sc(Nc6cc(Cl)ccc6OC)nc5CC[C@]4(C)[C@H]3CC[C@@]21C | 1690 nM | 4.65 µM |
| Cc1ccc2c(N)c(C(=O)N[C@H]3CCc4cc(N5CC6CCC(C5)N6)ccc4C3)sc2n1 | 579 nM | 2.07 µM |
| Cc1[nH]c(/C=C2\C(=O)Nc3ccc(F)cc32)c(C)c1C(=O)NC[C@H](O)CN1CCOCC1 | > 10000 nM | > 10 µM |
| S=C(N/N=C/c1ccccn1)Nc1ccccn1 | 1280 nM | 5.76 µM |
| C[C@]12CC[C@@H]3c4ccc(O)cc4CC[C@H]3[C@@H]1CC[C@@H]2NS(=O)(=O)Cc1ccc(Cl)cc1 | 3630 nM | 16.7 µM |
| COc1ccc(-c2nc(-c3ccccc3)c(-c3ccccc3)n2C2CC2)cc1OC1CCCC1 | 66800 nM | > 165 µM |
| Nc1nc(-c2cccc([N+](=O)[O-])c2)c(N=Nc2ccc(Br)cc2)s1 | 11100 nM | 34.2 µM |
| O=C1C=Cc2ccccc2/C1=C/c1[nH]c(=O)[nH]c1O | 2660 nM | 7.63 µM |
| Cc1cc2c(F)c(Oc3ncnn4cc(OC[C@@H](C)OC(=O)[C@H](C)N)c(C)c34)ccc2[nH]1 | 9230 nM | 21.8 µM |
| COc1ccc(-c2nc(-c3cn(C)c4ncccc34)cs2)cc1 | 3830 nM | > 100 µM |
| C=C1C(=O)O[C@H]2[C@H]1CC/C(Cn1cc(-c3ccccc3)nn1)=C\CC[C@@]1(C)O[C@@H]21 | 953 nM | 1.97 µM |
| COc1ccc(-c2cn[nH]c2-c2cc(OC)c(OC)c(OC)c2)cc1N | < 10 nM and 31.4 nM | > 100 µM |
| Cc1nc2cccc(NCc3ccc(C(=O)NO)cc3)c2c(=O)n1-c1ccccc1 | 1480 nM | 3.1 µM |
| N=C(N)CCCCCCCCC(=N)N | 10100 nM | > 100 µM |
| O=C(NOCC1CC1)c1ccc(F)c(F)c1Nc1ccc(I)cc1Cl | 2670 nM | 8.21 µM |
